This note sets out measurements from US20240252488A1 (KOREA RESEARCH INSTITUTE OF CHEMICAL TECHNOLOGY, priority 2020, published 2024).

Assay [1] deals with T1, MLKL (Homo sapiens, UniProt Q8NB16).
T1 sequence (Q8NB16 1-471): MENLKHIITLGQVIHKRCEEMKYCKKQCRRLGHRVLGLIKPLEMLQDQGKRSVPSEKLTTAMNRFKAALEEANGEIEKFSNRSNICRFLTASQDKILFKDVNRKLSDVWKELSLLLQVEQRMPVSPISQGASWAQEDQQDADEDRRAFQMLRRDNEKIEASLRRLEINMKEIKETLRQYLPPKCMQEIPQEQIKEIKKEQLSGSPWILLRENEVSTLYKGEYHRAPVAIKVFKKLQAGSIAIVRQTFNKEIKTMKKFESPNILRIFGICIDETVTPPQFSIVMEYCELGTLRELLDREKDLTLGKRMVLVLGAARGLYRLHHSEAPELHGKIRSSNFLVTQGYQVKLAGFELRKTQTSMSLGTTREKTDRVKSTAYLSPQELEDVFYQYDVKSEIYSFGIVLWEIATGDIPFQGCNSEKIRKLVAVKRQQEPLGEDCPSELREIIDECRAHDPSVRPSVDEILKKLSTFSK
Description: Measurement of binding affinity with MLKL receptor (competitive binding assay, Kd). The arrangement: made in house; host or cells: HEK 293 cell line (T7 phage in E. coli BL21-derived host is also described). The gist of the method:
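Competition binding of kinase tagged with DNA for qPCR detection, expressed in HEK 293 cells, against immobilized ligand on beads. Final DMSO 0.9%. Kd derived from kinase amount in eluates measured by qPCR.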

Assay [2] concerns the target T1, MLKL. Description: MLKL degradation assay in HepG2 cell line (western blot). The arrangement: endogenous in cells; host or cells: HepG2 or HaCaT. The settings on record: cell line not given; for Degradation assay (Degradation %) 1 μM: compound 1 μM; for Degradation assay (Degradation %) 10 μM: compound 10 μM. Format: cell-based. How it is done: MLKL degradation ability was evaluated in the following method.
1 mL of Human liver cancer cell line (HepG2 cell line) or human skin cell line (HaCaT cell line) was equally distributed into each well at 2.0×10^5 cells/mL in a 12-well cell culture plate. On the next day, the medium was replaced with a medium made so that the final concentration of test compound was 1 or 10 μM (1 mL/well), and incubated in 5% CO2, at 37° C. for 20-24 hours (Thermo scientific, Forma steri-cycle).
For protein preparation after incubation, cells were washed with 1×TBST, and 60 μL of RIPA lysis buffer containing Halt™ Protease and Phosphatase Inhibitor Cocktail was dispensed into each well. After scraping the cells with a scraper, the cells were recovered, and the pallet was homogenized and reacted on ice for 30 minutes. After the cells were centrifuged at 13,000 rpm, 10 minutes, 4° C., the supernatant was transferred to a new E-tube. For protein quantification, after dispensing sample and BCA (0-4 mg/ml) in a 96 well plate, 100 μL of BCA was dispensed and reacted in a 37° C. incubator for 30 minutes. After measuring the absorbance (SpectraMax, M5e, 562 nm), the amount of the sample was adjusted with the same concentration of protein and 4× Laemmli sample buffer, DW, and reacted at 100° C. for 5 minutes.
After assembling the MP TGX Precast Gel in the Mini-PROTEAN Tetra Cell, the same protein (10-15 μg) was added in an 8-10 μL volume per well, 1×Tris-Glycine Buffer was added, and loading was performed. After loading was completed, transfer was performed using Pierce G2 Fast Blotter and Pierce 1-Step Transfer Buffer. After completion of the transfer, 10 ml of SuperBlock™ Blocking Buffer was dispensed and reacted at room temperature for 10 minutes. 5% BSA containing the primary antibody was dispensed and reacted over night at 4° C. The next day, washing was performed three times with 1×TBST at room temperature for 10 minutes. 5% BSA containing the secondary antibody was dispensed and reacted at room temperature for 1 hour. Washing was performed three times with 1×TBST at room temperature for 10 minutes. The amount of protein expression was measured using chemiluminescence (LuminoGraph, ATTO).

The test system of the next assay is FADD−/− Jurkat cells. Kind of assay: Necroptosis inhibition assay, TNF-α-induced necroptosis (CellTiter-Glo 2.0). Type of assay: cell-based, human. Particulars: TNF-α 15 ng/mL; for Necroptosis inhibition assay (Rescue %) 1 μM: compound 1 μM; for Necroptosis inhibition assay (Rescue %) 10 μM: compound 10 μM. The gist of the method: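 Tested at three fixed concentrations (0.1, 1, 10 μM final) with a 30-minute room-temperature preincubation ahead of 15 ng/mL TNF-α challenge lasting 20 to 24 hours. Inhibition rate and cytotoxicity derive from ATP luminescence.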

`Nc1ncc(-c2cnn(C3CCN(C(=O)CCC4CCN(C(=O)C5CCN(c6cccc7c6C(=O)N(C6CCC(=O)NC6=O)C7=O)CC5)CC4)CC3)c2)nc1C(=O)O[C@@H](C(=O)Nc1ccc(F)cc1)c1ccccc1` (stereo partly drawn) [TDH-417, (R)-2-((4-fluorophenyl)amino)-2-oxo-1-phenylethyl 3-amino-6-(1-(1-(3-(1-(1-(2-(2,6-dioxopiperidin-3-yl)-1,3-dioxoisoindolin-4-yl)piperidine-4-carbonyl)piperidin-4-yl)propanoyl)piperidin-4-yl)-1H-pyrazol-4-yl)pyrazine-2-carboxylate] had a Kd on MLKL [1] of 3.5 nM. Moreover, at MLKL [2], the “Degradation assay (Degradation %) 1 μM” value is 87.84% and the “Degradation assay (Degradation %) 10 μM” value amounted to 63.85%. In the assay with FADD−/− Jurkat cells (FADD−/− Jurkat cells), the “Necroptosis inhibition assay (Rescue %) 1 μM” value was 24.41% and the “Necroptosis inhibition assay (Rescue %) 10 μM” value stood at 14.37%.
In turn, `Nc1ncc(-c2cnn(C3CN(CC4CCN(C(=O)CNc5ccc6c(c5)C(=O)N(C5CCC(=O)NC5=O)C6=O)CC4)C3)c2)nc1C(=O)OC(C(=O)Nc1ccc(F)cc1)c1ccccc1` (stereo not shown) [TDH-297, 2-((4-fluorophenyl)amino)-2-oxo-1-phenylethyl 3-amino-6-(1-(1-((1-((2-(2,6-dioxopiperidin-3-yl)-1,3-dioxoisoindolin-5-yl)glycyl)piperidin-4-yl)methyl)azetidin-3-yl)-1H-pyrazol-4-yl)pyrazine-2-carboxylate] yielded a Kd on MLKL [1] of 13 nM. At MLKL [2], the “Degradation assay (Degradation %) 1 μM” value turned out to be 76.86% and the “Degradation assay (Degradation %) 10 μM” value is reported as 70.16%. In the assay with FADD−/− Jurkat cells, the “Necroptosis inhibition assay (Rescue %) 1 μM” value was 74.28% and the “Necroptosis inhibition assay (Rescue %) 10 μM” value amounted to 63.92%.
`Nc1ncc(-c2cnn(C3CCN(C(=O)CC4CCN(C(=O)COc5cccc6c5C(=O)N(C5CCC(=O)NC5=O)C6=O)CC4)CC3)c2)nc1C(=O)O[C@@H](C(=O)Nc1ccc(F)cc1)c1ccccc1` (stereo partly drawn) [TDH-337, (R)-2-((4-fluorophenyl)amino)-2-oxo-1-phenylethyl 3-amino-6-(1-(1-(2-(1-(2-((2-(2,6-dioxopiperidin-3-yl)-1,3-dioxoisoindolin-4-yl)oxy)acetyl)piperidin-4-yl)acetyl)piperidin-4-yl)-1H-pyrazol-4-yl)pyrazine-2-carboxylate] came in with a Kd on MLKL [1] of 2.5 nM. In addition, on MLKL [2], the “Degradation assay (Degradation %) 1 μM” value was 46.82% and the “Degradation assay (Degradation %) 10 μM” value stood at 65.07%. Also, in the assay with FADD−/− Jurkat cells, the “Necroptosis inhibition assay (Rescue %) 1 μM” value turned out to be 32.31% and the “Necroptosis inhibition assay (Rescue %) 10 μM” value is recorded as 45.5%.
Taken in the same sequence, the figures for `Nc1ncc(-c2cnn(C3CCN(CC4CCN(C(=O)C5CCN(c6ccc7c(c6)C(=O)N(C6CCC(=O)NC6=O)C7=O)CC5)CC4)CC3)c2)nc1C(=O)O[C@@H](C(=O)Nc1ccc(F)cc1)c1ccccc1` (stereo partly drawn) [TDH-147, (R)-2-((4-fluorophenyl)amino)-2-oxo-1-phenylethyl 3-amino-6-(1-(1-((1-(1-(2-(2,6-dioxopiperidin-3-yl)-1,3-dioxoisoindolin-5-yl)piperidine-4-carbonyl)piperidin-4-yl)methyl)piperidin-4-yl)-1H-pyrazol-4-yl)pyrazine-2-carboxylate] were 24 nM, 38.91%, 60.57%, 84.3% and 45.37%.
`Nc1ncc(-c2ccc(N3CCN(CCOCCOCCNC(=O)CNc4cccc5c4C(=O)N(C4CCC(=O)NC4=O)C5=O)CC3)nc2)nc1C(=O)OC(C(=O)Nc1ccc(F)cc1)c1ccccc1` (stereo not shown) [TDH-259, 2-((4-fluorophenyl)amino)-2-oxo-1-phenylethyl 3-amino-6-(6-(4-(2-(2-(2-(2-((2-(2,6-dioxopiperidin-3-yl)-1,3-dioxoisoindolin-4-yl)amino)acetamido)ethoxy)ethoxy)ethyl)piperazin-1-yl)pyridin-3-yl)pyrazine-2-carboxylate] showed a Kd at MLKL [1] of 50 nM. For the same compound, at MLKL [2], the “Degradation assay (Degradation %) 1 μM” value was found to be 18.61% and the “Degradation assay (Degradation %) 10 μM” value was 30.36%.
`Nc1ncc(-c2cnn(C3CCN(CC4CCN(C(=O)CNc5cccc6c5C(=O)N(C5CCC(=O)NC5=O)C6=O)CC4)CC3)c2)nc1C(=O)N[C@@H](C(=O)Nc1ccc(F)cc1)c1ccccc1` (stereo partly drawn) [TDH-206, 3-amino-6-(1-(1-((1-((2-(2,6-dioxopiperidin-3-yl)-1,3-dioxoisoindolin-4-yl)glycyl)piperidin-4-yl)methyl)piperidin-4-yl)-1H-pyrazol-4-yl)-N-((R)-2-((4-fluorophenyl)amino)-2-oxo-1-phenylethyl)pyrazine-2-carboxamide]: on MLKL [1], binding was put at a Kd of 240 nM. Further, at MLKL [2], the “Degradation assay (Degradation %) 1 μM” value was determined as 21.78% and the “Degradation assay (Degradation %) 10 μM” value is 14.94%.
With `Nc1ncc(-c2cnn(C3CCN(C(=O)CCCCCC#Cc4cccc5c4CN(C4CCC(=O)NC4=O)C5=O)CC3)c2)nc1C(=O)O[C@@H](C(=O)Nc1ccc(F)cc1)c1ccccc1` (stereo partly drawn) [TDH-423, (R)-2-((4-fluorophenyl)amino)-2-oxo-1-phenylethyl 3-amino-6-(1-(1-(8-(2-(2,6-dioxopiperidin-3-yl)-1-oxoisoindolin-4-yl)oct-7-ynoyl)piperidin-4-yl)-1H-pyrazol-4-yl)pyrazine-2-carboxylate], the Kd at MLKL [1] came out at 9.8 nM. Also, at MLKL [2], the “Degradation assay (Degradation %) 1 μM” value was found to be 61.54% and the “Degradation assay (Degradation %) 10 μM” value was found to be 39.01%.
Regarding `Nc1ncc(-c2cnn(C3CCN(CCCCCCCCCCNC(=O)C4CN(c5cccc6c5C(=O)N(C5CCC(=O)NC5=O)C6=O)C4)CC3)c2)nc1C(=O)O[C@@H](C(=O)Nc1ccc(F)cc1)c1ccccc1` (stereo partly drawn) [TDH-158, (R)-2-((4-fluorophenyl)amino)-2-oxo-1-phenylethyl 3-amino-6-(1-(1-(10-(1-(2-(2,6-dioxopiperidin-3-yl)-1,3-dioxoisoindolin-4-yl)azetidine-3-carboxamido)decyl)piperidin-4-yl)-1H-pyrazol-4-yl)pyrazine-2-carboxylate], the Kd on MLKL [1] came out at 35 nM. For the same compound, at MLKL [2], the “Degradation assay (Degradation %) 1 μM” value amounted to 49.22% and the “Degradation assay (Degradation %) 10 μM” value was found to be 39.81%.
At MLKL [1], `Nc1ncc(C2=CCN(C(=O)COCCOCCNC(=O)CNc3ccc4c(c3)C(=O)N(C3CCC(=O)NC3=O)C4=O)CC2)cc1C(=O)O[C@@H](C(=O)Nc1ccc(F)cc1)c1ccccc1` (stereo partly drawn) [TDH-085, (R)-2-((4-fluorophenyl)amino)-2-oxo-1-phenylethyl 6-amino-1′-(2-(2-(2-(2-((2-(2,6-dioxopiperidin-3-yl)-1,3-dioxoisoindolin-5-yl)amino)acetamido)ethoxy)ethoxy)acetyl)-1′,2′,3′,6′-tetrahydro-[3,4′-bipyridine]-5-carboxylate] showed a Kd of 12 nM. In addition, the “Necroptosis inhibition assay (Rescue %) 1 μM” value with FADD−/− Jurkat cells is listed as 5.02%.
At MLKL [1], `Nc1ncc(-c2cnn(C3CCN(CCCCCCCCCCNC(=O)CNc4cccc5c4C(=O)N(C4CCC(=O)NC4=O)C5=O)CC3)c2)nc1C(=O)O[C@@H](C(=O)Nc1ccc(F)cc1)c1ccccc1` (stereo partly drawn) [TDH-161, (R)-2-((4-fluorophenyl)amino)-2-oxo-1-phenylethyl 3-amino-6-(1-(1-(10-(2-((2-(2,6-dioxopiperidin-3-yl)-1,3-dioxoisoindolin-4-yl)amino)acetamido)decyl)piperidin-4-yl)-1H-pyrazol-4-yl)pyrazine-2-carboxylate] yielded a Kd of 29 nM. For the same compound, in the assay on FADD−/− Jurkat cells, the “Necroptosis inhibition assay (Rescue %) 1 μM” value came out at 25.81% and the “Necroptosis inhibition assay (Rescue %) 10 μM” value is 35.81%.
